Data set [1] has as its system rats with chronic renal failure. The settings on record: adenine-induced chronic renal failure; cited from earlier work.
Data set [2] relates to patients with diabetic CRF. The settings on record: cited from earlier work.
The subject of data set [3] is patients with CKD (rapidly-progressive and slowly-progressive). As to the kind of experiment: new clinical tests: investigational drug orally once daily for 24 weeks, CKD stage 3 or 4. The data set is classed as in vivo, human. Particulars: for progress of worsening of the renal function (inclination of regression line to 1/sCr, before vs after): 24 weeks. The text has this: During such a period, a good idea has occurred that the effect of the present compound is investigated after dividing the patients with CKD into groups where worsening of the renal function is rapid and is not. As a result, the patients with CKD were divided into a group where changes in the reciprocal sCr value (1/sCr) per month before administration of the test drug are 0.01 dL/mg or more and worsening of the renal function is rapidly progressing (hereinafter, that will be referred to as “rapidly progressive CKD patients”) and another group where said changes are less than 0.01 dL/mg (hereinafter, that will be referred to as “slowly progressive CKD patients”) and clinical tests comparing the effect of the present compound were carried out. (Hereinafter, that will be referred to as “new clinical tests”.) Such a yardstick where the changes in the reciprocal sCr value are 0.01 dL/mg or more followed the yardstick adopted in the application of “Kremezin (Registered Trade Mark)” which is the above-mentioned spherical adsorptive carbon preparation. Further, in the new clinical tests, dose of the present compound was increased to some extent so as to find the difference from the results in the old clinical tests. Summary and result of the new clinical tests will be mentioned as follows.
A clinical test for evaluating the efficacy and the safety of the present compound was conducted using the patients where the CKD stage was 3 or 4 as the object. Persons who meet the following selection criteria were selected from the patients who were diagnosed as CKD and receiving a conservation therapy. • Sex is withdrawn from the consideration. Pregnant women and mothers suckling a baby are however excluded. • Age is from 20 to 75 years old. • GFR value is 15 to 59. • Patients where the serum creatinine (sCr) value is within a range of 1.5 to 5.0 mg/dL at the start of the test, the measuring frequencies from 52 weeks before the test until the start of the test are thrice or more and the difference in the tested values in the initial and the final stages is 0.2 mg/dL or more (showing a rise). • Patients where a therapy with a pharmaceutical agent which is thought to suppress the progress of CKD (such as a spherical adsorptive carbon preparation) or a diet therapy is newly started during three month before the start of the test are excluded. • Moreover, patients having a symptom of cerebrovascular disturbance, patients with infectious disease and patients with peptic ulcer are excluded.
After that, the objects were divided into the rapidly-progressive CKD patients and slowly-progressive CKD patients.
As a result, in the new clinical tests, the groups to which the tablets containing the present compound as an active ingredient (test drug) are administered and to which the tablets containing no active ingredient though being undistinguishable from the test drug are divided into six groups in total. Thus, they are three groups for slowly-progressive CKD patients comprising a placebo-administered group, a 800 mg test drug-administered group and a 1600 mg test drug-administered group and other three groups for a rapidly-progressive CKD patients comprising a placebo-administered, a 800 mg test drug-administered group and a 1600 mg test drug-administered group whereby there are six groups in total. The weight mentioned hereinabove is a weight of the present compound contained in the test drug and is a dose for one day. […]

“Also recorded” adds a separate entry of the source. Where two headings read alike, the source gives them in different places.

Turning to `CN1C(=O)NC(=O)C1O` (stereo not shown) [the present compound, 5-hydroxy-1-methylhydantoin], the “action on uremic toxin such as urea nitrogen and creatinine” value in data set [1] is on record as “action of lowering the uremic toxin”. In addition, the “inclination of the regression line of 1/sCr versus time” value in data set [2] (200 mg/day group (n=11), after the administration (24 weeks), mean±S.D., p=0.01, Non-Patent Document 2) is on record as −0.00046±0.00043; in data set [2] (200 mg/day group (n=11), before the administration, mean±S.D., Non-Patent Document 2), −0.00075±0.00066; in data set [2] (200 mg/day group (n=12), after the administration, p=0.016, Non-Patent Document 1) it was −0.0004±0.00047; in data set [2] (200 mg/day group (n=12), before the administration, Non-Patent Document 1) it was −0.00078±0.00064; in data set [2] (400 mg/day group (n=11), after the administration (24 weeks), mean±S.D., p=0.02, Non-Patent Document 2), −0.00066±0.00097; in data set [2] (400 mg/day group (n=11), after the administration, p=0.024, Non-Patent Document 1), −0.00068±0.00096. Further, the “inclination of the regression line of 1/sCr versus time” value in data set [2] (400 mg/day group (n=11), before the administration, Non-Patent Document 1) was −0.00098±0.00077; in data set [2] (400 mg/day group (n=11), before the administration, mean±S.D., Non-Patent Document 2) it was −0.00098±0.00077. In addition, in data set [2] (200 or 400 mg/day orally for 24 weeks), the “side effect in the clinical test and in the clinical symptom” value is “No critical side effect”. Moreover, the “accumulation of the pharmaceutical agent” value in data set [2] (during the course of the clinical test, 200 or 400 mg/day for 24 weeks) was “no accumulation”. In addition, the “progress of worsening of the renal function (inclination of regression line to 1/sCr, before vs after)” value is reported as “significantly suppressed or improved; also recorded: a downward-sloping inclination becomes somewhat upward rather than moderate” in data set [3] (800 mg/day, rapidly-progressive CKD patients (five test subjects), Dunnett test); “No such an effect was achieved” in data set [3] (800 mg/day, slowly-progressive CKD patients); “a certain effect was noted in a rapidly-progressive CKD patient but the effect was not so significant” in data set [3] (1600 mg/day, rapidly-progressive CKD patients); “No effect was noted” in data set [3] (1600 mg/day, slowly-progressive CKD patients). Besides, the “side effect / safety” value in data set [3] (all cases including the 1600 mg/day-administered group, 24 weeks oral) is reported as “almost no side effect is noted; also recorded: no critical side effect becoming a problem is observed”.

These data come from patent US9801858B2, “Progress-supressing or improving agent for chronic kidney disease” (NIPPON ZOKI PHARMACEUTICAL CO., LTD., priority 2014, dated 2017).
